{
  "source": "patent US7744867B2",
  "about": "“PTPase inhibitors and method of using same” (The Cleveland Clinic Foundation, priority 2001, dated 2010)",
  "key": {"[1]": {"biological_target": "T1, GST/SHP-1 fusion protein (Mus musculus, UniProt P29351)", "T1 construct": "made in house", "T1 sequence (P29351 whole entry, the tested form may be a part)": "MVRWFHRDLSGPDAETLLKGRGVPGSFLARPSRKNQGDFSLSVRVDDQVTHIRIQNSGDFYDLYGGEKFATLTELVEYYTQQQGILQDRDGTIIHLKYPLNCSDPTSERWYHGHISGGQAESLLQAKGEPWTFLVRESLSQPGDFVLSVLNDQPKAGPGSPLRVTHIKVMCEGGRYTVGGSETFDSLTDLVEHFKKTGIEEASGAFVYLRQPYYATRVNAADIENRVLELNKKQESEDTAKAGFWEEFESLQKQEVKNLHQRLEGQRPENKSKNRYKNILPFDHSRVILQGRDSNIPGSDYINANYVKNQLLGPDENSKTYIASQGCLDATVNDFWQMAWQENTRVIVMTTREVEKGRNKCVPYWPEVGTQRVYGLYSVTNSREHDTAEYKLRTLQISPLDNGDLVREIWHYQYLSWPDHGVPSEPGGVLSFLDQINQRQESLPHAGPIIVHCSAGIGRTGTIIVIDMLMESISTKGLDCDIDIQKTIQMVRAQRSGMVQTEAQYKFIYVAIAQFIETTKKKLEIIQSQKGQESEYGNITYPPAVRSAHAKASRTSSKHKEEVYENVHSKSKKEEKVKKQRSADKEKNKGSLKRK", "test": "In vitro PTPase assay, dephosphorylation of a synthetic phosphotyrosine peptide", "format": "biochemical", "details": "Sb concentration of 10 μg/ml", "method": "In vitro PTPase activities were measured using the commercial protein tyrosine phosphatase assay kit (UBI) following established procedure. This assay measures the in vitro dephosphorylation of a synthetic phosphotyrosine peptide (R-R-L-I-E-D-A-E-pY-A-A-R-G). Briefly, 0.01 μg of GST/PTPase fusion protein was incubated in 50 μl of Tris buffer (10 mM Tris, […]) at 22° C. for 10 minutes, followed by addition of 0.2 mM of the phosphotyrosine peptide and incubation at 22° C. for 18 hours. 100 μl of Malachite Green solution was added and incubated for 5 minutes, and the absorbance at 660 nm was measured after 5 minutes."}, "[2]": {"biological_target": "T2, MKP1 (GST fusion protein) (Homo sapiens, UniProt P28562)", "T2 construct": "made in house; host or cells: E. coli DH5a", "T2 sequence (P28562 whole entry, species assumed, the tested form may be a part)": "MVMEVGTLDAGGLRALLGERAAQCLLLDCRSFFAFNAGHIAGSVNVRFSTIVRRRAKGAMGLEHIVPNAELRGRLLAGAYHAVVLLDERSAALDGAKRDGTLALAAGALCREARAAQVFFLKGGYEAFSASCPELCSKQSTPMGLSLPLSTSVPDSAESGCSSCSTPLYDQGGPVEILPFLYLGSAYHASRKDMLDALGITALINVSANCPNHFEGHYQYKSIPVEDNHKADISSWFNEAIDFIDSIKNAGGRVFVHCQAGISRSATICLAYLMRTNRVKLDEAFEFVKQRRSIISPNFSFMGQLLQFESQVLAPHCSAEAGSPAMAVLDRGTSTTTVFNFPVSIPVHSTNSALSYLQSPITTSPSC", "test": "In vitro PTPase assay, dephosphorylation of a synthetic phosphotyrosine peptide", "format": "biochemical", "method": "In vitro PTPase activities were measured using the commercial protein tyrosine phosphatase assay kit (UBI) following established procedure. This assay measures the in vitro dephosphorylation of a synthetic phosphotyrosine peptide (R-R-L-I-E-D-A-E-pY-A-A-R-G). Briefly, 0.01 μg of GST/PTPase fusion protein was incubated in 50 μl of Tris buffer (10 mM Tris, pH 7.4) containing different concentrations of inhibitors or chemicals (0 to 1,000 μg/ml) at 22° C. for 10 minutes, followed by addition of 0.2 mM of the phosphotyrosine peptide and incubation at 22° C. for […]. 100 μl of Malachite Green solution was added and incubated for 5 minutes, and the absorbance at 660 nm was measured after 5 minutes."}, "[3]": {"biological_target": "T3, recombinant PRL-3 (Homo sapiens, UniProt O75365)", "T3 construct": "made in house; host or cells: E. coli DH5α", "T3 sequence (O75365 whole entry)": "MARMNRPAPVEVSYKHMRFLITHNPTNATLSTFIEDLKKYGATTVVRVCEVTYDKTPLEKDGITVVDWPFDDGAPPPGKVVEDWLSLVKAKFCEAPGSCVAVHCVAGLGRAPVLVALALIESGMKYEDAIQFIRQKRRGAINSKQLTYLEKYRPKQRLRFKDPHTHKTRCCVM", "test": "In vitro PTPase assay with recombinant PRL (peptide or DiFMUP substrate)", "format": "biochemical", "method": "In vitro PTPase activities were measured using the commercial protein tyrosine phosphatase assay kit (UBI) following established procedure. […] 100 μl of Malachite Green solution was added and incubated for 5 minutes, and the absorbance at 660 nm was measured after 5 minutes.\nRecombinant GST fusion proteins of human PRL-1, 2 and 3 phosphatases were purified with glutathione beads from DH5α bacteria transformed by pGEX vectors containing cDNA fragments encoding the human PRLs which were generated by RT-PCR from H9 cells and confirmed by sequence analysis. Activities of the purified recombinant PRL proteins in dephosphorylating DiFMUP in the absence or presence of various inhibitors were measured following established procedure.\nTo assess whether sodium stibogluconate is an inhibitor of oncogenic PRL phosphatases, its effects on the PTPase activity of recombinant PRLs were evaluated by in vitro PTPase assays."}, "[4]": {"biological_target": "T4, intracellular MKP1 in WM9 cells (Homo sapiens, UniProt P28562)", "T4 construct": "endogenous in cells; host or cells: WM9 human melanoma cells", "T4 sequence (P28562 whole entry)": "as the sequence (P28562 whole entry, species assumed, the tested form may be a part) above", "test": "PTPase activity of anti-MKP1 immunocomplexes from WM9 cells", "format": "cell-based", "details": "treated 5 minutes", "method": "FIG. 6C. Sodium stibogluconate inactivates intracellular PRL-2 in WM9 human melanoma cells. A. Relative PTPase activities of anti-Flag immunocomplexes from WM9 cells transfected with the control vector (V) or Flag-PRL-2 expression construct and then treated with different amounts of sodium stibogluconate for 5 minutes B. Relative amounts of Flag-PRL-2 in the immunocomplexes as determined by SDS-PAGE/Western blotting. C. Relative PTPase activities of anti-MKP1 immunocomplexes from WM9 cells treated with different amounts of sodium stibogluconate for 5 minutes. Relative amounts of MKP1 in the immunocomplexes as determined by SDS-PAGE/Western blotting.\nFlag-PRL-2 protein was detected in anti-Flag immunocomplexes from WM9 cells tranfected with an expression construct of Flag-PRL-2 but not in those from vector transfectants expected."}, "[5]": {"system": "Leishmaniasis", "details": "cited from earlier work"}, "[6]": {"details": "cited from earlier work"}, "[7]": {"system": "Peer cells (T-ALL)", "test": "Growth inhibition of human tumor cell lines", "format": "cell-based", "details": "SS 12.5 μg/ml, IFNα 1,000 u/ml, alone or combined"}, "[8]": {"system": "C42 cells (Prostate cancer)", "test": "Growth inhibition of human tumor cell lines", "format": "cell-based", "details": "SS 12.5 μg/ml, IFNα 1,000 u/ml, alone or combined"}, "[9]": {"system": "DU145 human prostate carcinoma xenografts", "test": "Xenografts of human prostate carcinoma in nude mice, tumor volume", "format": "in vivo", "details": "day 25, IFNα 500,000 U s.c. daily, sodium stibogluconate 12 mg Sb s.c. daily, alone or combined", "excerpt": "FIG. 11 illustrates that sodium stibogluconate appears to synergize with IFNα against WM9 human melanoma tumors in nude mice. IFNα or both on the growth of xenografts of human melanoma cell line WM9 and human prostate carcinoma cell line DU-145 in athymic nude mice. Nude mice of 4 weeks old were inoculated subcutaneously (s.c.) with WM9 human melanoma cells (3×10^6 cells/site) (A) or DU-145 human prostate cancer cells (2×10^6 cells/site) (B) on day 0. Starting on day 2, the mice were subjected to no treatment (Control) or treatment with IFNα (500,000 U, s.c., daily), sodium stibogluconate (12 mg, s.c., daily) or both (Combo). Tumor volume in the nude mice (4 mice/group, 2 tumors/mouse) was measured on the days as indicated. Tumor volume was calculated by the equation: (length×width^2)/2 to compare tumor growth rates. All mice survived by the end of the experiment. […]\nFor each of the cell lines, each of 16 mice received subcutaneous injection at the chest area of 3×10^6 cells/site (WM9) or 2×10^6 cells/site (DU145), two sites/mouse, on day 0. […] Tumor size was measured with a caliper to determine the two perpendicular diameters of each tumor. Tumor volume was calculated using the method of the NCI (length×width^2 in millimeters/2=volume in cubic millimeters)."}},
  "data": [
    {"compound": "O.O.O.O.O.O.O.O.O.O=C([O-])[C@@H]1[O][Sb]2([O-])([O][Sb]34([OH])[O][C@H]([C@H](O)CO)[C@H]([O]3)[C@H](C(=O)[O-])[O]4)[O][C@H]([C@H](O)CO)[C@@H]1[O]2.[Na+].[Na+].[Na+]", "note": "[sodium stibogluconate]", "values": [
      {"measurement": "effect on recombinant SHP-1", "setting": "[1]", "result": "inactivated"},
      {"measurement": "inhibitory activity against MKP1", "setting": "[2]", "result": "no obvious inhibitory activity"},
      {"measurement": "inhibition of PRL-3 after prolonged pre-incubation", "setting": "[3]; pre-incubation 30 or 60 minutes, 10 mg/ml", "result": "nearly complete inactivation"},
      {"measurement": "reversibility of PRL-3 inactivation", "setting": "[3]; washing process", "result": "not relieved"},
      {"measurement": "effect on MKP1 PTPase activity in WM9 cells", "setting": "[4]", "result": "no marked effects"},
      {"measurement": "efficacy in Leishmaniasis", "setting": "[5]; 20 mg Sb/kg body weight per day i.m. daily for 10-14 days", "result": "70-100%"},
      {"measurement": "known toxicity profile", "setting": "[5]; human, in vivo", "result": "modest cardiac toxicity and leukopenia"},
      {"measurement": "single dose used without serious toxicity", "setting": "[5]; human, in vivo", "result": "up to 143 mg Sb/kg"},
      {"measurement": "blood levels, of peak value", "setting": "[6]; in 16 hours", "result": "around 1%"},
      {"measurement": "excreted (renal clearance)", "setting": "[6]; in the first 6 hours", "result": "more than 80%"},
      {"measurement": "serum levels", "setting": "[6]; standard dosage 10-20 mg/kg/day", "result": "≥ 10000", "unit": "ng/mL"}
    ]},
    {"compound": "IFNα", "values": [
      {"measurement": "% of growth inhibition by day 6 (±s.d.)", "setting": "[7]", "result": "86 (4) %"},
      {"measurement": "% of growth inhibition by day 6 (±s.d.)", "setting": "[8]", "result": "+19 (30) %"},
      {"measurement": "average tumor volume, of the control", "setting": "[9]", "result": "approximately 70%"}
    ]}
  ]
}
